Source: article PMC4398322, “Snake neurotoxin α-bungarotoxin is an antagonist at native GABAA receptors” (Neuropharmacology, 2015)
Values joined by “and” are separate entries in the source; they are usually repeats but may differ in a detail not shown here. Equal entries are not always repeated. Where two headings read alike, the source gives them in different places.

Columns and labels:
α2β2γ2 GABAARs = biological target: T1, α2β2γ2 GABAARs (Mus musculus, UniProt P22723+P26048+P63137); type: binding, murine
T1 construct: expressed in transfected cells; host or cells: HEK-293
Procedure: (§1) Murine GABAAR α1-6, β1-3, γ2 and δ cDNAs subcloned into pRK-5 and pEGFP-C1 have been described previously ([Mortensen et al., 2011]).
(§2) Cells were transfected with equimolar ratios of cDNAs encoding for α1–6, β1–3 and δ or γ2 GABAA receptor subunits along with eGFP using a calcium phosphate method ([Mortensen et al., 2011]) 15–45 min after plating.
Live transfected HEK-293 cells were studied 48 h after transfection and washed with Krebs to remove cell culture media and incubated in 400 nM α-Bgtx coupled with Alexa Fluor 555 (α-Bgtx-AF555; Life Technologies) for 10 min at room temperature (RT). Cells were washed and fixed in 4% paraformaldehyde (PFA; Sigma) for 10 min at RT. The cells were imaged immediately post-fixation in saline using a Zeiss LSM 510 Meta confocal microscope and an Achroplan x40 water DIC objective (NA 0.8) as described previously ([Hannan et al., 2012]). This involved choosing the optimal z-section and acquiring images as a mean of 4 scans in 16-bits using a 543 nm Helium–Neon laser and a 560 nm long-pass filter for α-Bgtx-AF555 and a 488 Argon laser with a 505–530 nm band-pass filter for eGFP.
Confocal images were analysed using ImageJ (version 1.410) as described previously ([Hannan et al., 2013]). For each cell the surface membrane was identified by drawing a region-of-interest (ROI) in the eGFP channel and this was transferred to the α-Bgtx-AF555 channel and the mean membrane fluorescence values were determined. Mean background fluorescence was determined from a region devoid of cells. This was subtracted from the mean membrane fluorescence providing a mean corrected fluorescence intensity value. These values, for different combinations of receptors and drugs, were graphically plotted using Origin.
To identify the location of the α-Bgtx binding site on GABAARs, we pre-incubated HEK-293 cells expressing α2β2γ2 with a range of ligands that act at GABAARs and nAChRs, for 5 min at RT followed by co-incubation with α-Bgtx-AF555 for 10 min at RT (Fig. 4A). These ligands were selected to ‘protect by binding occupancy’ known binding site domains on GABAARs and nAChRs.
A, Schematic of the experimental protocol. 48 hrs after transfection, HEK-293 cells expressing eGFP and α2β2γ2 were incubated in drug for 5 min at RT followed by the addition of drug +400 nM α-Bgtx-AF555 for 10 min at RT to label cell surface receptors. The cells were washed to remove the excess α-Bgtx-AF555, fixed and imaged. B, Images of cells expressing α2β2γ2, stained with α-Bgtx-AF555 in the presence of 1 mM d-Tc, 1 mM nicotine, or 1 mM carbachol. C, Mean cell surface fluorescence of α-Bgtx-AF555 bound to surface GABAARs in the presence of d-Tc, nicotine or carbachol. […] Scale bars 5 μm.

[1] = tested on: native hippocampal GABAARs; type: cell-based, rat
Procedure: Dissociated hippocampal neurons were prepared from embryonic day 18 rat pups as described ([Hannan et al., 2012]). Briefly, hippocampi were dissected in ice-cold Hank's Balanced Salt Solution (HBSS) (Ca^2+/Mg^2+ free) before enzymatic dissociation in 0.1% (w/v) trypsin at 37 °C for 10 min followed by serial washes in pre-warmed HBSS to remove trypsin prior to trituration. Cells were mechanically dissociated using fire-polished glass Pasteur pipettes in plating medium composed of minimal essential medium (MEM) supplemented with 5% (v/v) fetal calf serum (FCS), 5% (v/v) horse serum, penicillin-G and streptomycin (200 units/ml and 200 μg/ml), 2 mM L-glutamine and 35 mM glucose. Cells were plated at a density of 10^6 per ml in plating medium on glass cover-slips previously coated with poly-D-lysine. The neurons were grown and maintained at 37 °C in a humidified 95% air/5% CO2 atmosphere.
After plating (30 min), the medium was removed and replaced with maintenance medium composed of Neurobasal-A supplemented with 1% (v/v) B-27, penicillin-G and streptomycin (100 units/ml and 100 μg/ml), 0.5% (v/v) Glutamax and 35 mM glucose.
(§3) Patch electrodes had resistances of 4–5 MΩ and were filled with an internal solution containing (mM): 120 CsCl 1 MgCl2, 11 EGTA, 30 KOH, 10 HEPES, 1 CaCl2, and 2 K2ATP; pH – 7.2. HEK-293 cells were superfused with a saline solution containing (mM): 140 NaCl, 4.7 KCl, 1.2 MgCl2, 2.52 CaCl2, 11 Glucose, and 5 HEPES; pH 7.4. The saline for recording from primary neurons was supplemented with 2 mM kynurenic acid and pH adjusted to 7.4 to block all spontaneous excitatory post-synaptic currents (EPSCs). Membrane currents were filtered at 5 kHz (−3 dB, 6th pole Bessel, 36 dB/octave). HEK-293 cells were studied 48 h after transfection by voltage clamping cells at a holding potential of −20 to −40 mV with optimised series resistance (Rs, <10 MΩ) and whole-cell membrane capacitance compensation. Neuronal membrane currents were similarly recorded at a holding potential of −60 mV.
(§4) Spontaneous inhibitory postsynaptic currents (IPSCs) were recorded from dentate gyrus granule cells (DGGCs) with the same internal solution as above. Cells were voltage clamped at −60 mV and IPSCs were recorded using 5 kHz filtering with optimal series resistance and whole-cell capacitance compensation.

α5β2γ2 GABAAR = biological target: T2, α5β2γ2 GABAAR (Mus musculus, UniProt P22723+P63137+Q8BHJ7); assay: Whole-cell GABA-activated currents in transfected HEK-293 cells (patch clamp); type: cell-based, murine
T2 construct: expressed in transfected cells; host or cells: HEK-293
Procedure: as §1, §2, §3, §4

α2β2γ2 GABAAR = biological target: T3, α2β2γ2 GABAAR (Mus musculus, UniProt P22723+P26048+P63137); assay: as above; type: cell-based, murine
T3 construct: expressed in transfected cells; host or cells: HEK-293
Procedure: as §1, §2, §3, §4

α2β2 receptors = biological target: T4, α2β2 receptors (Mus musculus, UniProt P26048+P63137); assay: as above; type: cell-based, murine
T4 construct: expressed in transfected cells; host or cells: HEK-293
Procedure: as §1, §2
as §3, with “Whole-cell GABA-activated currents were recorded from transfected HEK-293 cells or hippocampal neurons in culture at 12–14 DIV using patch clamp electrophysiology. Patch” for “Patch”

[2] = tested on: dentate gyrus granule cells (DGGCs); assay: Tonic inhibition (holding current, RMS noise) in dentate gyrus granule cells of acute hippocampal slices; type: cell-based, mouse
Procedure: (§5) Acute transverse brain slices were prepared from adult (P115–125) male C57BL/6J mice in accordance with the UK Animals (Scientific Procedures) Act 1986.
(§6) The brain was rapidly removed after terminal anaesthesia with isoflurane and immersed in ice-cold slicing solution composed of (mM): 85 NaCl, 2.5 KCl, 1 CaCl2, 4 MgCl2, 1.25 NaH2PO4, 26 NaHCO3, 75 sucrose, and 25 glucose, 2 kynurenic acid, pH – 7.4. The slicing solution was continuously bubbled with 95% […] and 5% CO2. Transverse 250 μm slices containing the ventral hippocampus were cut with a Leica VT1200S vibroslicer. The slicing solution was exchanged at 37 °C for 60 min with a recording solution containing (mM): 125 NaCl, 2.5 KCl, 2 CaCl2, 1 MgCl2, 1.25 NaH2PO4, 26 NaHCO3, 2 kynurenic acid, and 25 glucose, pH 7.4.
For tonic inhibition, to determine the average holding currents, a 60 s continuous current recording was sampled every 1 s, discarding epochs that coincided with IPSCs. Any effect of drugs on the holding current was defined by subtracting the average holding currents in control and during drug application.
The baseline noise (RMS) was calculated before and during drug treatment. This was estimated from a continuous (30 s) current recording, sampled every 100 ms. The median current was calculated every 5 s and values more than twice the standard deviation from the median (usually due to IPSCs) were eliminated. Baseline GABA-mediated current noise was defined by subtracting RMS values before and after drugs, e.g., α-Bgtx or bicuculline.

α4β2δ receptors = biological target: T5, α4β2δ receptors (Mus musculus, UniProt P22933+P63137+Q9D6F4); assay: Whole-cell GABA-activated and leak currents in transfected HEK-293 cells (patch clamp); type: cell-based, murine
T5 construct: expressed in transfected cells; host or cells: HEK-293
Procedure: as §1, §2, §3, §4

[3] = tested on: dentate gyrus granule cells (DGGCs); assay: Spontaneous IPSCs in dentate gyrus granule cells of acute hippocampal slices; type: cell-based, mouse
Procedure: as §5, §6, §4
IPSCs were detected and analysed using WinEDR and WinWCP (John Dempster, University of Strathclyde, UK). IPSC frequency was calculated using events detected over 60 s epochs of recording. […] This function provided the Gaussian mean amplitude current (μ) and standard deviation (σ). All the distributions were fitted using this function in Origin (Ver 6). The accuracy of the fits was checked by repeating the iterative non-linear fitting procedure after substituting the best-fit parameters obtained for the control and α-Bgtx datasets with new values.

α4β2γ2 GABAAR = biological target: T6, α4β2γ2 GABAAR (Mus musculus, UniProt P22723+P63137+Q9D6F4); type: cell-based, murine
T6 construct: expressed in transfected cells; host or cells: HEK-293
Procedure: as §1, §2
as §3, with “HEK-293 cells were studied 48 h after transfection by voltage clamping cells at a holding potential of −20 to −40 mV with optimised series resistance (Rs, <10 MΩ) and whole-cell membrane capacitance compensation.” left out
as §4

[4] = tested on: GABAARs expressed in HEK293 cells; type: cell-based, murine
α1β2γ2 GABAAR = biological target: T7, α1β2γ2 GABAAR (Mus musculus, UniProt P22723+P62812+P63137); assay: Whole-cell GABA-activated currents in transfected HEK-293 cells (patch clamp); type: cell-based, murine
T7 construct: expressed in transfected cells; host or cells: HEK-293
Procedure: as §1, §2, §3, §4

[5] = 1 mM ligand, 5 min pre-incubation then + 400 nM α-Bgtx-AF555 10 min, n = 7, Fig. 4B–C

T5 sequence (P22933 17-449): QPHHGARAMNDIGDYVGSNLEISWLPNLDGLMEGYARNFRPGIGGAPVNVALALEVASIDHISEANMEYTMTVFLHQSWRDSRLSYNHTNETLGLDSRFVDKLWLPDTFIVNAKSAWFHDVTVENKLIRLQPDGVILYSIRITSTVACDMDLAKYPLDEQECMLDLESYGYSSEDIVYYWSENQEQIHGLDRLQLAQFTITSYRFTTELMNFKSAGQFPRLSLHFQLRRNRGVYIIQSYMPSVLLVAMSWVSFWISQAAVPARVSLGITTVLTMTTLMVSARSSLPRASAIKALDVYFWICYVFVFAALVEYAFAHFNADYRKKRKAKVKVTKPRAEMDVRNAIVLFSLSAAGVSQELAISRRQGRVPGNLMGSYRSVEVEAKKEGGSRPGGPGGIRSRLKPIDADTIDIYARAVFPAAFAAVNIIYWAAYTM
T5 sequence (P63137 25-512): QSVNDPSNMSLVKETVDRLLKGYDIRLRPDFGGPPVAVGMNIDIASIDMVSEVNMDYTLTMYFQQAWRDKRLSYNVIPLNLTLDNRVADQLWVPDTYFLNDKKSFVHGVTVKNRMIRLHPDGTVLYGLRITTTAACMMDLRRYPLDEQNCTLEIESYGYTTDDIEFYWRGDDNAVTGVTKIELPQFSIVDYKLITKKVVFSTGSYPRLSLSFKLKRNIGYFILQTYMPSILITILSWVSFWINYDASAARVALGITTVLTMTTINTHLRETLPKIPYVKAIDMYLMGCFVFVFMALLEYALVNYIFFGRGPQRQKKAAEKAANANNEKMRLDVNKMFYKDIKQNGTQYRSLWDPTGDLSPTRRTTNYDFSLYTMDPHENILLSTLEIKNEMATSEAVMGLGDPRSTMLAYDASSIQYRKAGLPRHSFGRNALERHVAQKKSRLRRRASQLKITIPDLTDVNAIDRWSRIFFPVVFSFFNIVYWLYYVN
T5 sequence (Q9D6F4 36-552): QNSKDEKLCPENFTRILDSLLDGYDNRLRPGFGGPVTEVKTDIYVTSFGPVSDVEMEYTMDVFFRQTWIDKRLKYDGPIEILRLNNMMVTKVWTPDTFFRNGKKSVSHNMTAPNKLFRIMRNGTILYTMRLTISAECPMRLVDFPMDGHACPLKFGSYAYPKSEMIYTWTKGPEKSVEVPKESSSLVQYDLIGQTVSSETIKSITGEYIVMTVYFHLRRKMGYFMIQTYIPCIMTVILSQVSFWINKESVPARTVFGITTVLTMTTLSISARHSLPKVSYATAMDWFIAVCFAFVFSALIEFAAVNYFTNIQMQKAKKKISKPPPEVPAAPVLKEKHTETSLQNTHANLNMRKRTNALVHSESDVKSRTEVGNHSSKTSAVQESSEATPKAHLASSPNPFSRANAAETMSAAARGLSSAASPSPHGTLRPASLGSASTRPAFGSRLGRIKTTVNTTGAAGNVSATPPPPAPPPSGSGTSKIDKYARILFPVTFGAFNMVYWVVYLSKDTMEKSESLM
T1 sequence (P26048 29-451): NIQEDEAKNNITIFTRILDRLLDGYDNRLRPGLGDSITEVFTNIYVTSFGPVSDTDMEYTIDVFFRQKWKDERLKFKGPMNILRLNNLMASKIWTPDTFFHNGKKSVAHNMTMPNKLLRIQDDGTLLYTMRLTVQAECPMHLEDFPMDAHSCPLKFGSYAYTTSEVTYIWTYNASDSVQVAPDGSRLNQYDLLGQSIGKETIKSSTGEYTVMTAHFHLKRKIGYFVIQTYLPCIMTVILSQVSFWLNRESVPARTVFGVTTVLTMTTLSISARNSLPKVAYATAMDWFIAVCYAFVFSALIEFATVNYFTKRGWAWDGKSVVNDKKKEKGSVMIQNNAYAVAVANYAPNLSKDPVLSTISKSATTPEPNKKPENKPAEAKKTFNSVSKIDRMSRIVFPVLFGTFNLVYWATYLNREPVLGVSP
T1 sequence (P63137 25-512): as the sequence (P63137 25-512) above
T1 sequence (P22723 39-474): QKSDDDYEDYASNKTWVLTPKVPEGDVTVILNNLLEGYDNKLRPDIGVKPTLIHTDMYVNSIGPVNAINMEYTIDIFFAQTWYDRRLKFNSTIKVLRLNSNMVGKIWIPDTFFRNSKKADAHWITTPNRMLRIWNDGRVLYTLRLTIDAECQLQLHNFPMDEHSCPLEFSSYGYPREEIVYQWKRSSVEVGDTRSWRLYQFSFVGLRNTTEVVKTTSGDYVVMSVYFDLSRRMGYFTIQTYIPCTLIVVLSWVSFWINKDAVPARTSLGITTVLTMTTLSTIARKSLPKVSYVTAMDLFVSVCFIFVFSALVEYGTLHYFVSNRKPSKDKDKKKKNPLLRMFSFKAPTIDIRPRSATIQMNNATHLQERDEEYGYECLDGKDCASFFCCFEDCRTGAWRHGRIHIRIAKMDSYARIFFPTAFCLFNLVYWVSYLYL
T3 sequence (P63137 25-512): as the sequence (P63137 25-512) above
T3 sequence (P26048 29-451): as the sequence (P26048 29-451) above
T3 sequence (P22723 39-474): as the sequence (P22723 39-474) above
T2 sequence (P22723 39-474): as above
T2 sequence (Q8BHJ7 32-463): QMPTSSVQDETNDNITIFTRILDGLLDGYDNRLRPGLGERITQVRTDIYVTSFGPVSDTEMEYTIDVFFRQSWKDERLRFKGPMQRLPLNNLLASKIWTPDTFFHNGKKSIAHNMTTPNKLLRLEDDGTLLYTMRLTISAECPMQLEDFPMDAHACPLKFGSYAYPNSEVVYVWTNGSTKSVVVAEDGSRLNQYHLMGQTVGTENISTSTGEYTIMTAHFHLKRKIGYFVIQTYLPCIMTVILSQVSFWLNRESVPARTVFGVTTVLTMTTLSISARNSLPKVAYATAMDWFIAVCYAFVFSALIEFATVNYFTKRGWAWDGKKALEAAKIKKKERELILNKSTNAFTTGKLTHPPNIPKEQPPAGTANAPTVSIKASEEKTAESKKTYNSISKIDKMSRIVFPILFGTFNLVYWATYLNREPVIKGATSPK
T2 sequence (P63137 25-512): as the sequence (P63137 25-512) above
T6 sequence (P63137 25-512): as above
T6 sequence (P22723 39-474): as the sequence (P22723 39-474) above
T6 sequence (Q9D6F4 36-552): as the sequence (Q9D6F4 36-552) above
T7 sequence (P63137 25-512): as the sequence (P63137 25-512) above
T7 sequence (P22723 39-474): as the sequence (P22723 39-474) above
T7 sequence (P62812 28-455): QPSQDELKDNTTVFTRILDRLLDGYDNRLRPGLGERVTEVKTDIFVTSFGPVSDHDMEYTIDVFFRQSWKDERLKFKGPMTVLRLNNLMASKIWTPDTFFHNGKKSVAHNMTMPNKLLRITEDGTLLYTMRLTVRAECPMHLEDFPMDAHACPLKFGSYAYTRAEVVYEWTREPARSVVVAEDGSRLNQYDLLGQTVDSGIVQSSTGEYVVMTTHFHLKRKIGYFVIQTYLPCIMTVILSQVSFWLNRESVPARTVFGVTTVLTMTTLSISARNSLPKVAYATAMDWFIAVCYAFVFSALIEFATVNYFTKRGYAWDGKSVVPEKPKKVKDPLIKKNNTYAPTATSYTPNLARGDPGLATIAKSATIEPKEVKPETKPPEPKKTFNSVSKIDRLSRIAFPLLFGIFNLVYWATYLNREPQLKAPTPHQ
T4 sequence (P26048 29-451): as the sequence (P26048 29-451) above
T4 sequence (P63137 25-512): as the sequence (P63137 25-512) above

Molecule: COc1cc2c3cc1Oc1cc(ccc1O)C[C@@H]1c4c(cc(OC)c(O)c4Oc4ccc(cc4)C[C@@H]3N(C)CC2)CC[N+]1(C)C [d-Tc, d-tubocurarine]
- α-Bgtx-AF555 binding in presence of ligand (α2β2γ2 GABAARs; 1 mM d-Tc, n = 6, Fig. 4D–E): 7.1 ± 1.9 % of control
- α-Bgtx-AF555 binding in presence of ligand (α2β2γ2 GABAARs; [5]): 1.8 ± 1.3 % of control
- inhibition of whole-cell GABA-activated currents [1]: 92 ± 4 % inhibition

Molecule: CCCC(C)C1(CC)C(=O)NC(=O)NC1=O (centres unmarked) [pentobarbital]
- modulation of 1 μM GABA currents ([1]; 20 μM pentobarbital): potentiated

Molecule: CN1CCC[C@H]1c1cccnc1 [nicotine]
- α-Bgtx-AF555 binding in presence of ligand (α2β2γ2 GABAARs): 90.5 ± 11.4 % of control

Molecule: NCCCC(=O)O [GABA, γ-aminobutyric acid]
- α-Bgtx-AF555 binding in presence of ligand (α2β2γ2 GABAARs): 34.9 ± 7.1 % of control
- EC50 (α5β2γ2 GABAAR; n = 5): 2440 nM

Molecule: C[N+](C)(C)CCOC(N)=O [carbachol]
- α-Bgtx-AF555 binding in presence of ligand (α2β2γ2 GABAARs; [5]): 100.5 ± 11.3 % of control

Molecule: [Zn+2] [Zn^2+]
- inhibition of submaximal GABA currents by Zn^2+ (α2β2γ2 GABAAR): 37.4 ± 8.9%
- inhibition of submaximal GABA currents by Zn^2+ (α2β2 receptors): 90.8 ± 4.44%

Molecule: CN1CCc2cc3c(cc2[C@H]1[C@@H]1OC(=O)c2c1ccc1c2OCO1)OCO3 [bicuculline]
- RMS noise ([2]; 50 μM bicuculline applied after α-Bgtx, n = 6, P < 0.05): 2.74 ± 0.34 pA
- average tonic current revealed (change in holding current) ([2]; 50 μM bicuculline, n = 7): 9.31 ± 2.52 pA

Molecule: Oc1noc2c1CCNC2 [THIP]
- response compared with maximal GABA (1 mM) (α4β2δ receptors; 300 μM THIP): superagonist ability

Molecule: picrotoxin
- α-Bgtx-AF555 binding in presence of ligand (α2β2γ2 GABAARs): 106.7 ± 14.9 % of control

Molecule: CCN1C[C@]2(COC(=O)c3ccccc3N3C(=O)C[C@H](C)C3=O)CC[C@H](OC)[C@@]34[C@@H]5C[C@H]6[C@H](OC)[C@@H]5[C@](O)(C[C@@H]6OC)[C@@](O)([C@@H](OC)[C@H]23)[C@@H]14 [MLA, methyllaconitine]
- frequency of IPSCs ([3]; 1 nM MLA, n = 5, control 4.12 ± 0.9 Hz, P > 0.05): 3.75 ± 1.2 Hz
- median IPSC amplitude ([3]; 1 nM MLA, n = 6098 events, control −30.82 pA, P > 0.05): −30.21 pA
- effect on currents activated by sub-maximal GABA [1]: < 1 % of control
- inhibition of GABA-activated currents ([1]; 10 μM GABA, 1 nM MLA, 1 min pre-incubation then co-applied, n = 6, P > 0.05): 0.8 ± 1.7 % inhibition
- DGGC holding current ([2]; 1 nM MLA): slightly reduced
- effect on amplitude of GABA-activated currents (α2β2γ2 GABAAR; 1 nM MLA pre-applied 1 min before co-application with GABA): did not affect the amplitude

Molecule: α-bungarotoxin [α-Bgtx]
- IPSC amplitude distribution, Gaussian peak 1 mean [3]: −13.66 pA
- IPSC amplitude distribution, Gaussian peak 2 mean [3]: −19.01 pA
- frequency of IPSCs [3]: 2.17 ± 0.34 Hz
- median IPSC amplitude [3]: −23.19 pA
- inhibition of submaximal GABA currents (α4β2γ2 GABAAR): 41.3 ± 4.4%
- reduction of saturating GABA currents [4]: 13.0 ± 5.9%
- inhibition of GABA currents [1]: 33 ± 9%
- reversibility of inhibition [1]: reversible
- RMS noise [2]: 3.39 ± 0.59 pA
- change in DGGC holding current [2]: 1.27 ± 1.21 pA
- inhibition of submaximal GABA currents (α5β2γ2 GABAAR): 15.3 ± 5.9%
- inhibition of submaximal GABA currents (α1β2γ2 GABAAR): 23.8 ± 3%
- potentiation of submaximal GABA responses (α4β2δ receptors): 46 ± 5% and 40 ± 6%
- reduction in leak current in HEK-293 cells expressing α4β2δ relative to reduction of the leak in DGGCs (α4β2δ receptors): over 40 fold
- reduction of leak current (α4β2δ receptors): 56 ± 3.7 pA and 75 ± 13 pA
